In one assay the target is porcine brain αβ-tubulin (Sus scrofa, UniProt P02554). Kind of assay: Tubulin polymerization (turbidimetry at 340 nm). The class given is biochemical. On the procedure: Tubulin is isolated as pure αβ-tubulin from fresh pig brain according to the method of Castoldi and Popov (Protein Expr. Purif. 2003, 32, 83-88). Working stock solutions of αβ-tubulin are stored at -80°C. Freshly thawed αβ-tubulin is centrifuged and then incubated with the compounds to be tested in suitable solvents and buffers, guanosine-5'-triphosphate (GTP), and glutamate in a 96-well plate, as described in more detail below in the Examples. The polymerization is monitored real-time at 340 nm in a temperature-controlled TECAN GeniosPro spectrophotometer. UV absorption of compounds is subtracted from absorption curves.
porcine brain αβ-tubulin, sequence (P02554 whole entry): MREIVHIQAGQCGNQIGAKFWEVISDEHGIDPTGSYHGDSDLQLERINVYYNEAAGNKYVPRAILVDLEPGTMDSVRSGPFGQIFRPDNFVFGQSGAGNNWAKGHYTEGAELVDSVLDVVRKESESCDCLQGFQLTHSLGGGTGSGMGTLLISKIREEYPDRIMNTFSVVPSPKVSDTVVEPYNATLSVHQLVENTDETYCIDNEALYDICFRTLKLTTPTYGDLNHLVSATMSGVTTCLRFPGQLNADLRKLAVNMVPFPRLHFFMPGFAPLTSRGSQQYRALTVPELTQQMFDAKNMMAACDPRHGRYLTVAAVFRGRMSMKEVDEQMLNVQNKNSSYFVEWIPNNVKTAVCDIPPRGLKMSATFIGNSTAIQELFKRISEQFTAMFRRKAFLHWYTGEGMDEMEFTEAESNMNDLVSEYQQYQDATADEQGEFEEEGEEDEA
porcine brain αβ-tubulin, sequence (P02550 whole entry partner): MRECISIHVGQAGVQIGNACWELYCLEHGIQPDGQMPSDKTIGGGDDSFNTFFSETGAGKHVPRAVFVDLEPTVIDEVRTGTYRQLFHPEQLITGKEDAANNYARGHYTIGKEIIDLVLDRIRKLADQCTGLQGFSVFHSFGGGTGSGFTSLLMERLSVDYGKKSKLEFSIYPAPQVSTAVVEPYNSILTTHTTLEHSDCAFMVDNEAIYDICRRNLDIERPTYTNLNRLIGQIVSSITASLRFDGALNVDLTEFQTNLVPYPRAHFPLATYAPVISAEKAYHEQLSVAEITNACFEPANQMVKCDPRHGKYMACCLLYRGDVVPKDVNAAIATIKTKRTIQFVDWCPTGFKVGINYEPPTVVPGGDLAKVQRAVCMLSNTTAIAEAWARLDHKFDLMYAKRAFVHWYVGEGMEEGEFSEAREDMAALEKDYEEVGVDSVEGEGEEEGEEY
Tubulin was isolated as pure αβ-tubulin from fresh pig brain according to the method of Castoldi and Popov (Protein Expr. Purif. 2003, 32, 83-88). Fresh brains were obtained from the local slaughterhouse and processed immediately without prior cooling. 150-200 g cleaned pig brain was put into ice-cooled depolymerization buffer (50 mM MES [2-morpholinoethanesulphonic acid], 1 mM CaCl2, adjusted to pH 6.9 with KOH) and homogenized in a Polytron mixer. The homogenate was centrifuged in a Sorvall SLA-1500 rotor at 14500 rpm for 60 min. The supernatant was transferred into an Erlenmeyer flask in high-molarity PIPES buffer (1 M PIPES [1,4-piperazinediethanesulfonic acid], 10 mM MgCl2, 20 mM EGTA [ethylene glycol-bis-2(2-aminoethyl)-tetraacetic acid] adjusted to pH 6.9 with KOH) plus […] (1.5 mM final concentration) and glycerol (98%) ad 300 ml. The resulting suspension was mixed and incubated at 37°C for 1 hour. Aliquots were transferred into ultracentrifuge tubes and centrifuged in a Beckman Ti50.2 rotor at.32500 rpm (96000 g) for 75 min at 30°C. The microtubule protein pellets were resuspended in depolymerization buffer and put on ice prior to ultracentrifugation at 4°C. The procedure was repeated for two polymerization cycles (total of 3 cycles) and the final αβ-tubulin pellets were resuspended in ice-cold Brinkley Buffer (BRB80; 80 mM PIPES, 1 mM MgCl2, 1 mM EGTA adjusted to pH 6.8 with KOH) prior to shock-freezing in liquid nitrogen and subsequent storage at -80°C. αβ-tubulin purity and concentration were determined by SDS-PAGE gel electrophoresis and spectrophotometrically (A = ε x c x d with a given extinction coefficient of 115'000 M^-1cm^-1) at 280 nm. This procedure typically yielded 60-100 mg of αβ-tubulin per 100 g of brain.
Freshly thawed αβ-tubulin was centrifuged at 5000 g for 5 min at 5°C and then incubated with additional BRB80 buffer, drugs, DMSO vehicle, guanosine-5'-triphosphate (GTP) / glutamate (25 mM /2.7 M), respectively, in a 96-well plate in either 50 or 100 µl volumes. Experiments were either carried out in a 96-well quartz plate or in normal 96-well polystyrene plates (Falcon). The polymerization was monitored real-time at 340 nm in a temperature-controlled TECAN GeniosPro spectrophotometer. Depending on the specific experiment, the temperature was set either to room temperature (actual measuring temperature was 24-27°C) or 37°C. […] UV absorption of compounds was subtracted from absorption curves. All experiments, along with both negative (untreated αβ-tubulin) and vehicle controls, were carried out in triplicate. Experiments were performed at least with two different αβ-tubulin batches.

The next assay deals with A549. Put plainly: Human cancer cell growth inhibition, methylene blue staining, A549. The class given is cell-based. On the procedure:
(§1) Stock solutions of the test compounds (2 mM) are prepared in DMSO and stored at -20°C. Human KB-31 and (multidrug-resistant, P-gp170 expressing) KB-8511 epidermoid carcinoma cells (Akiyama et al., Somat. Cell. Mol. Genetics 1985, 11, 117-120), which are both derivatives of the KB cell line (ATCC) and are human epidermis carcinoma cells, are employed. KB 31 cells may be cultivated in mono-layers using Dulbecco's modified Eagle's medium (D-MEM) with 10% foetal calf serum (M.A. Bioproducts), L-glutamine (Flow), penicillin (50 units/ml) and streptomycin (50 µg/ml) (Flow); they then grow at a duplication time of ca. 22 hours, and their relative plating efficiency is ca. 60%. KB-8511 is a variant derived from the KB-31 cell line, which is obtained using colchicine treatment cycles, and has an approximately 40 times relative resistance to colchicine compared with KB-31 cells. The cells are incubated at 37°C in an incubator with 5% v/v CO2 and at 80% relative humidity with MEMAlpha medium which contains ribonucleosides and desoxyribonucleosides (Gibco BRL), complemented with 10 IU penicillin, 10 µg/ml streptomycin and 5% foetal calf serum. The cells are seeded in a quantity of 1.5 x 10^3 cells/well in 96-well microtitre plates, and incubated over night. Serial dilutions of the test compounds in culture medium are added on day 1. […] After washing, the dye is eluted with 3% HCl and the optical density measured at 665 nm with a GeniosPro plate spectrophotometer (Tecan, Switzerland). IC50 values are determined by adaptation of mathematical curves, using the formula [(OD treated)-(OD start) [/] (OD control)-(OD start)] x 100. The IC50 is defined as the concentration of a test compound at the end of the incubation period, which led to 50% of the cell count per well compared with the control (concentration at semi-maximum inhibition of cell growth).
(§2) The preferred ranges of the IC50 values of compounds of formula (I) are given in square parentheses. A549 (lung; ATCC CCL 185) [0.01 to 100 nM], HCT-116 (colon) [0.05 to 200 nM], and PC-3M cells (prostate, hormone-insensitive derivative derived from PC-3, ATCC CRL 1435) [0.05 to 500 nM] were grown in RPMI-1640 medium supplemented with 10% FBS.

For a further assay, the system named is HCT-116. Put plainly: Human cancer cell growth inhibition, methylene blue staining, HCT-116. The note with it: read-out: IC50 HCT-116. The class given is cell-based. On the procedure: as §1, §2
In another assay the test system is PC-3M. Put plainly: Human cancer cell growth inhibition, methylene blue staining, PC-3M. The note with it: read-out: IC50 PC-3M. The class given is cell-based. How it is done: as §1, §2
The next assay concerns KB-31. Kind of assay: Human cancer cell growth inhibition, methylene blue staining, KB-31. It counts as cell-based. As to conditions: read-out: IC50 KB-31. On the procedure:
as §1, with “The cells are incubated at 37°C in an incubator with 5% v/v CO2 and at 80% relative humidity with MEMAlpha medium which contains ribonucleosides and desoxyribonucleosides (Gibco BRL), complemented with 10 IU penicillin, 10 µg/ml streptomycin and 5% foetal calf serum.” left out, “night.” for “night. Serial dilutions of the test compounds in culture medium are added on day 1.”, “(OD control)-(OD start)] x 100. The IC50 is defined as the concentration of a test compound at the end of the incubation period, which led to 50% of the cell count per well compared with the control (concentration at semi-maximum inhibition of cell growth).” left out

For assay [1], the system named is drug-sensitive human cancer cells. Kind of assay: Potency comparison on drug-sensitive human cancer cell lines (from Table 1). The note with it: potency ratio versus reference compound B. The class given is cell-based. How it is done:
as §1, with “The cells are incubated at 37°C in an incubator with 5% v/v CO2 and at 80% relative humidity with MEMAlpha medium which contains ribonucleosides and desoxyribonucleosides (Gibco BRL), complemented with 10 IU penicillin, 10 µg/ml streptomycin and 5% foetal calf serum.” left out, “night.” for “night. Serial dilutions of the test compounds in culture medium are added on day 1.”, “(OD control)-(OD start)] x 100. The IC50 is defined as the concentration of a test compound at the end of the incubation period, which led to 50% of the cell count per well compared with the control (concentration at semi-maximum inhibition of cell growth).” left out

Read-outs that look alike come from different tables or passages of the source.

`Cc1nc2cc([C@@H]3CCN(C(=O)OC(C)(C)C)C/C=C/[C@H](C)[C@H](O)[C@@H](C)C(=O)C(C)(C)[C@@H](O)CC(=O)O3)ccc2n1C` [A, (2S,9S,10S,11R,14S,E)-tert-butyl-2-(1,2-dimethyl-1H-benzo[d]imidazol-5-yl)-10,14-dihydroxy-9,11,13,13-tetramethyl-12,16-dioxo-1-oxa-5-azacyclohexadec-7-ene-5-carboxylate, reference compound]: a half-maximal effect at porcine brain αβ-tubulin (EC50) was put at 9100 ± 700 nM. The IC50 worked out at 920 ± 85 nM in the assay on A549 (A549, read-out: IC50 A549); 1010 ± 71 nM with HCT-116 (HCT-116, 72 h); 973 ± 64 nM in the assay with PC-3M (PC-3M).
Turning to `C/C(=C\c1csc(C)n1)[C@@H]1C[C@@H]2O[C@@H]2CCC[C@H](C)[C@H](O)[C@@H](C)C(=O)C(C)(C)[C@@H](O)CC(=O)O1` [C, Epothilone A, reference compound], the EC50 on porcine brain αβ-tubulin amounted to 4600 ± 500 nM. Also, the IC50 in the assay on A549 (A549, read-out: IC50 A549) came out at 3.2 ± 0.5 nM; in the assay on HCT-116 (HCT-116, 72 h), 2.2 ± 0.3 nM; in the assay on PC-3M (PC-3M) it was 3.4 ± 0.4 nM.
For the molecule `CCOC(=O)N1CCC[C@H](C)[C@H](O)[C@@H](C)C(=O)C(C)(C)[C@@H](O)CC(=O)O[C@H](c2ccc3c(c2)nc(C)n3C)CC1` [Compound 2], on porcine brain αβ-tubulin, the midpoint of the response, the EC50, lay at 5400 ± 400 nM. Besides, the IC50 with A549 (A549, read-out: IC50 A549) was 18 ± 3.1 nM; in the assay on HCT-116 (HCT-116, 72 h), 23.9 ± 2.9 nM; in the assay on PC-3M (PC-3M), 12.3 ± 1.1 nM.
Taken in the same sequence, the figures for `Cc1nc2cc([C@@H]3CCN(c4ccc([N+](=O)[O-])c5nonc45)CCC[C@H](C)[C@H](O)[C@@H](C)C(=O)C(C)(C)[C@@H](O)CC(=O)O3)ccc2n1C` [Compound 17, (2S,9S,10S,11R,14S)-2-(1,2-dimethyl-1H-benzo[d]imidazol-5-yl)-10,14-dihydroxy-9,11,13,13-tetramethyl-5-(7-nitrobenzo[c][1,2,5]oxadiazol-4-yl)-1-oxa-5-azacyclohexadecane-12,16-dione] were 7200 ± 600 nM, 329 ± 237 nM, 206 ± 8 nM and 244 ± 45 nM.
With `C/C(=C\c1csc(C)n1)[C@@H]1CCN(C(=O)OC(C)(C)C)CCC[C@H](C)[C@H](O)[C@@H](C)C(=O)C(C)(C)[C@@H](O)CC(=O)O1` [B, reference compound], the EC50 on porcine brain αβ-tubulin was determined as 5600 ± 400 nM. In addition, the IC50 in the assay on A549 (A549, read-out: IC50 A549) stood at 130 ± 24 nM; in the assay with HCT-116 (HCT-116, 72 h) it was 110 ± 19 nM; in the assay with PC-3M (PC-3M) it was 126 ± 22 nM; with KB-31 (KB 3-1, 72 h) it was 31 nM.
`Cc1nc2cc([C@@H]3CCN(C(=O)OCC(F)(F)F)CCC[C@H](C)[C@H](O)[C@@H](C)C(=O)C(C)(C)[C@@H](O)CC(=O)O3)ccc2n1C` [Compound 3] had an EC50 at porcine brain αβ-tubulin of 5100 ± 500 nM. Also, the IC50 is 11.5 ± 1.8 nM with A549 (A549, read-out: IC50 A549); 17.1 ± 3.3 nM with HCT-116 (HCT-116, 72 h); 6.3 ± 2.1 nM in the assay on PC-3M (PC-3M).
In the case of `Cc1nc2cc([C@@H]3CCN(C(=O)OC(C)(C)C)CCC[C@H](C)[C@H](O)[C@@H](C)C(=O)C(C)(C)[C@@H](O)CC(=O)O3)ccc2n1C` [Compound 1, (2S,9S,10S,11R,14S)-tert-butyl-2-(1,2-dimethyl-1H-benzo[d]imidazol-5-yl)-10,14-dihydroxy-9,11,13,13-tetramethyl-12,16-dioxo-1-oxa-5-azacyclohexadecane-5-carboxylate], the EC50 on porcine brain αβ-tubulin (concentration required to induce 50% of the maximum αβ-tubulin polymerization achievable with the respective compound, 10 µM of porcine brain αβ-tubulin, turbidity at 340 nm, mean ± standard deviation, read-out: EC50 Tubulin polymerization) is 3900 ± 600 nM. The IC50 came to 1.9 ± 0.4 nM with A549 (A549: lung, cells exposed, mean of at least three experiments ± standard deviation, read-out: IC50 A549); 1.6 ± 0.5 nM in the assay with HCT-116 (HCT-116: colon, cells exposed for 72 h, mean of at least three experiments ± standard deviation); 2.3 ± 0.6 nM with PC-3M (PC-3M: prostate, cells exposed, mean of at least three experiments ± standard deviation); 0.35 nM in the assay on KB-31 (KB 3-1, KB-31: cervical (or cervix), parental line, cells exposed for 72 h). In assay [1], the “more potent against drug-sensitive human cancer cells than aza-epothilone B” value was greater than 60 fold.

For orientation: EC50 means the concentration at which the effect is half-maximal. For orientation: IC50 means the midpoint of a concentration-inhibition curve.

(Values after patent EP1845096A1, “12-Aza-epothilones, process for their preparation and their use as antiproliferative agents” (ETH Zürich, priority 2006, dated 2007).)
